Test results reported in ChEMBL document CHEMBL5678818, “Discovery of potent SOS1 inhibitors that block RAS activation via disruption of the RAS-SOS1 interaction” (Proc Natl Acad Sci U S A, 2019).

Experiments:
[1] = target: Serine/threonine-protein kinase WNK3 (Homo sapiens) (UniProt Q9BYP7); assay: Inhibition of WNK3 (unknown origin) assessed as residual activity at 1000 nM by KINOMEscan analysis relative to control
[2] = target: T1, Mitogen-activated protein kinase kinase kinase 15 (Homo sapiens) (UniProt Q6ZN16); assay: Inhibition of MAP3K15 (unknown origin) assessed as residual activity at 1000 nM by KINOMEscan analysis relative to control
T1 sequence (whole entry): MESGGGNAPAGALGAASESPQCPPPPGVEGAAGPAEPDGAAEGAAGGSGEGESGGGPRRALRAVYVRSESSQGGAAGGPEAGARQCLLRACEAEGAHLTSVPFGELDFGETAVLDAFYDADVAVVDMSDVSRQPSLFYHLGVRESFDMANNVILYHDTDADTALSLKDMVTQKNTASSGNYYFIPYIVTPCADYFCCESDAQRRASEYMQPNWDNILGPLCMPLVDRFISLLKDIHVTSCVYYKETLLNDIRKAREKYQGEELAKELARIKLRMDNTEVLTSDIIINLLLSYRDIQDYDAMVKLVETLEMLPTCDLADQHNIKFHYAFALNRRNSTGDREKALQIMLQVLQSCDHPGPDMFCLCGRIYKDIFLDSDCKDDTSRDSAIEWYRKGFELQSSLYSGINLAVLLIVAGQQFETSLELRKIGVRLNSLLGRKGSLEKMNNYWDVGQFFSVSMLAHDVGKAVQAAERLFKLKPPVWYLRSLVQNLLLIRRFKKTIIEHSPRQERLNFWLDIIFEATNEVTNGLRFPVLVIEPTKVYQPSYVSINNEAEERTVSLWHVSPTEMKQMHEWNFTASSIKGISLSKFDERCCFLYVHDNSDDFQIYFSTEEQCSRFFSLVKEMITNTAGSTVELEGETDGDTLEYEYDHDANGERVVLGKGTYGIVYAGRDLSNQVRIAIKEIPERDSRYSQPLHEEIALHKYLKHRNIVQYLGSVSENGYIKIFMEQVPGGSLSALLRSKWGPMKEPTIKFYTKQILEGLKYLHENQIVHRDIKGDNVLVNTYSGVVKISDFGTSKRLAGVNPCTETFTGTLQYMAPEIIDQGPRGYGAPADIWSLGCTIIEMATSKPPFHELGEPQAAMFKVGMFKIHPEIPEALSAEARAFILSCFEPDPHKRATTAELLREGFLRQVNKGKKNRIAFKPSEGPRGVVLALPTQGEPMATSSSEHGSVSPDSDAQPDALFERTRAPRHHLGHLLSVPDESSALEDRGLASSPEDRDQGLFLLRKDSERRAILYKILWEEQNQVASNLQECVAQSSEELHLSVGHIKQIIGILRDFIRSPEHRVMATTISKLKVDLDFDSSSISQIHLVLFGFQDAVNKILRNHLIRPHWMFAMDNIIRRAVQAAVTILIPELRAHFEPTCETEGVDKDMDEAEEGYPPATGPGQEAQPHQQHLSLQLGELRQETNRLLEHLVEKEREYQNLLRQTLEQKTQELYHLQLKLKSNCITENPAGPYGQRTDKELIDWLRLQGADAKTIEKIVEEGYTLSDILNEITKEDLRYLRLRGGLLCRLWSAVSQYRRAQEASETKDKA

[3] = target: SRSF protein kinase 1 (Homo sapiens) (UniProt Q96SB4); assay: Inhibition of SRPK1 (unknown origin) assessed as residual activity at 1000 nM by KINOMEscan analysis relative to control
[4] = target: T2, cGMP-dependent protein kinase 1 (Homo sapiens) (UniProt Q13976); assay: Inhibition of PRKG1 (unknown origin) assessed as residual activity at 1000 nM by KINOMEscan analysis relative to control
T2 sequence (whole entry): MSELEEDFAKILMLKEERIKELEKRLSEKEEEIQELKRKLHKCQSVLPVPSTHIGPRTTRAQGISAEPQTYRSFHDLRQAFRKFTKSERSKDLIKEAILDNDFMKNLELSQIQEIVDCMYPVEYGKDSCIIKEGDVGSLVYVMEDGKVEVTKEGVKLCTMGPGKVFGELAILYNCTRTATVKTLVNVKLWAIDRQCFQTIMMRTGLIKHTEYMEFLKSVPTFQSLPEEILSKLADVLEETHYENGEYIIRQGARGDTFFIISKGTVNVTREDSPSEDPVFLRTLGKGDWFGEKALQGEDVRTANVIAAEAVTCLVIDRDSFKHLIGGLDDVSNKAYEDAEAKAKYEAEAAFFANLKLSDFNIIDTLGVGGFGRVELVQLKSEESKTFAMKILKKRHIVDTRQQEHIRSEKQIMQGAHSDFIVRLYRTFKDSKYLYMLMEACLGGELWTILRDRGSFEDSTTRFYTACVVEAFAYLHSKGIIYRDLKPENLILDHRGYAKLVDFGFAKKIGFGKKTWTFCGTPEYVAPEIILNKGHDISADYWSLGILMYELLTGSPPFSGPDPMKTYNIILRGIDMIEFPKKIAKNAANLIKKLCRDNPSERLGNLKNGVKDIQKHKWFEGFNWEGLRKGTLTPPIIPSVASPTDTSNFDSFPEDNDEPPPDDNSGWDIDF

[5] = target: Serine/threonine-protein kinase Nek6 (Homo sapiens) (UniProt Q9HC98); assay: Inhibition of NEK6 (unknown origin) assessed as residual activity at 1000 nM by KINOMEscan analysis relative to control
[6] = target: Cyclin-dependent kinase 13 (Homo sapiens) (UniProt Q14004); assay: Inhibition of CDC2L5 (unknown origin) assessed as residual activity at 1000 nM by KINOMEscan analysis relative to control
[7] = target: LIM domain kinase 1 (Homo sapiens) (UniProt P53667); assay: Inhibition of LIMK1 (unknown origin) assessed as residual activity at 1000 nM by KINOMEscan analysis relative to control
LIM domain kinase 1 (Homo sapiens), sequence (P53667 whole entry, looked up, the tested form may be a part): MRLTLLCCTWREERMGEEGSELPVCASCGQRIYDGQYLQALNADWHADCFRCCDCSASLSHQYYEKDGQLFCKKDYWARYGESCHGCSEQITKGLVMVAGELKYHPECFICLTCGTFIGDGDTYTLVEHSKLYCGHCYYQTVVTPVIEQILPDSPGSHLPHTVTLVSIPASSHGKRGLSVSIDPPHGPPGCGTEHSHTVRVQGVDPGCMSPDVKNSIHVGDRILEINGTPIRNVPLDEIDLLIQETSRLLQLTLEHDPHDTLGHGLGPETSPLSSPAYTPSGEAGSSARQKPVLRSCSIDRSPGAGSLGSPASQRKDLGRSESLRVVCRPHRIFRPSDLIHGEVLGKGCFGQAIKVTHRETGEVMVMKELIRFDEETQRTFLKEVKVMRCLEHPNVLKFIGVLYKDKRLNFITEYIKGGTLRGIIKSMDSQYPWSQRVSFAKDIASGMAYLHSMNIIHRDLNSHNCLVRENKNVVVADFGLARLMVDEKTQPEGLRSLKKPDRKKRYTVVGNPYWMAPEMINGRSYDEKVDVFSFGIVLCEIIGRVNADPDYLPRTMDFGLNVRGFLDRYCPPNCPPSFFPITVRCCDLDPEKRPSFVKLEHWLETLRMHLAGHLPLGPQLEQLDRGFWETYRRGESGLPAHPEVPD

SRSF protein kinase 1 (Homo sapiens), sequence (Q96SB4 whole entry): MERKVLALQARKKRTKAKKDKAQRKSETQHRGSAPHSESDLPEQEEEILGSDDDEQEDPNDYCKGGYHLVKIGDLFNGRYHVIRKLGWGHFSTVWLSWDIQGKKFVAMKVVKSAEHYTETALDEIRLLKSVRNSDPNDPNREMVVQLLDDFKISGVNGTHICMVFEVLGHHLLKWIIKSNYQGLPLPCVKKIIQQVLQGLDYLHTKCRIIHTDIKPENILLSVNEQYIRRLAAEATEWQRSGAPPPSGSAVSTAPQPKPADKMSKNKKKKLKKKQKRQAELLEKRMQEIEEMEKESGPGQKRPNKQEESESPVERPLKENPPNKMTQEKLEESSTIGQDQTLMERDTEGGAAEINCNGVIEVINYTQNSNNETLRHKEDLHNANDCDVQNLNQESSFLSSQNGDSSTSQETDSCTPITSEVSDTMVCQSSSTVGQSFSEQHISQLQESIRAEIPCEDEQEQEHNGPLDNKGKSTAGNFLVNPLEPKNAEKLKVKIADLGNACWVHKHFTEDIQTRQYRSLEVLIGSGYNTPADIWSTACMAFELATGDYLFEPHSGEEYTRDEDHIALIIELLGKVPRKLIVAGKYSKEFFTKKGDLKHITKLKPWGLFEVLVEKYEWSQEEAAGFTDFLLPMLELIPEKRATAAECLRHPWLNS
Serine/threonine-protein kinase WNK3 (Homo sapiens), sequence (Q9BYP7 whole entry): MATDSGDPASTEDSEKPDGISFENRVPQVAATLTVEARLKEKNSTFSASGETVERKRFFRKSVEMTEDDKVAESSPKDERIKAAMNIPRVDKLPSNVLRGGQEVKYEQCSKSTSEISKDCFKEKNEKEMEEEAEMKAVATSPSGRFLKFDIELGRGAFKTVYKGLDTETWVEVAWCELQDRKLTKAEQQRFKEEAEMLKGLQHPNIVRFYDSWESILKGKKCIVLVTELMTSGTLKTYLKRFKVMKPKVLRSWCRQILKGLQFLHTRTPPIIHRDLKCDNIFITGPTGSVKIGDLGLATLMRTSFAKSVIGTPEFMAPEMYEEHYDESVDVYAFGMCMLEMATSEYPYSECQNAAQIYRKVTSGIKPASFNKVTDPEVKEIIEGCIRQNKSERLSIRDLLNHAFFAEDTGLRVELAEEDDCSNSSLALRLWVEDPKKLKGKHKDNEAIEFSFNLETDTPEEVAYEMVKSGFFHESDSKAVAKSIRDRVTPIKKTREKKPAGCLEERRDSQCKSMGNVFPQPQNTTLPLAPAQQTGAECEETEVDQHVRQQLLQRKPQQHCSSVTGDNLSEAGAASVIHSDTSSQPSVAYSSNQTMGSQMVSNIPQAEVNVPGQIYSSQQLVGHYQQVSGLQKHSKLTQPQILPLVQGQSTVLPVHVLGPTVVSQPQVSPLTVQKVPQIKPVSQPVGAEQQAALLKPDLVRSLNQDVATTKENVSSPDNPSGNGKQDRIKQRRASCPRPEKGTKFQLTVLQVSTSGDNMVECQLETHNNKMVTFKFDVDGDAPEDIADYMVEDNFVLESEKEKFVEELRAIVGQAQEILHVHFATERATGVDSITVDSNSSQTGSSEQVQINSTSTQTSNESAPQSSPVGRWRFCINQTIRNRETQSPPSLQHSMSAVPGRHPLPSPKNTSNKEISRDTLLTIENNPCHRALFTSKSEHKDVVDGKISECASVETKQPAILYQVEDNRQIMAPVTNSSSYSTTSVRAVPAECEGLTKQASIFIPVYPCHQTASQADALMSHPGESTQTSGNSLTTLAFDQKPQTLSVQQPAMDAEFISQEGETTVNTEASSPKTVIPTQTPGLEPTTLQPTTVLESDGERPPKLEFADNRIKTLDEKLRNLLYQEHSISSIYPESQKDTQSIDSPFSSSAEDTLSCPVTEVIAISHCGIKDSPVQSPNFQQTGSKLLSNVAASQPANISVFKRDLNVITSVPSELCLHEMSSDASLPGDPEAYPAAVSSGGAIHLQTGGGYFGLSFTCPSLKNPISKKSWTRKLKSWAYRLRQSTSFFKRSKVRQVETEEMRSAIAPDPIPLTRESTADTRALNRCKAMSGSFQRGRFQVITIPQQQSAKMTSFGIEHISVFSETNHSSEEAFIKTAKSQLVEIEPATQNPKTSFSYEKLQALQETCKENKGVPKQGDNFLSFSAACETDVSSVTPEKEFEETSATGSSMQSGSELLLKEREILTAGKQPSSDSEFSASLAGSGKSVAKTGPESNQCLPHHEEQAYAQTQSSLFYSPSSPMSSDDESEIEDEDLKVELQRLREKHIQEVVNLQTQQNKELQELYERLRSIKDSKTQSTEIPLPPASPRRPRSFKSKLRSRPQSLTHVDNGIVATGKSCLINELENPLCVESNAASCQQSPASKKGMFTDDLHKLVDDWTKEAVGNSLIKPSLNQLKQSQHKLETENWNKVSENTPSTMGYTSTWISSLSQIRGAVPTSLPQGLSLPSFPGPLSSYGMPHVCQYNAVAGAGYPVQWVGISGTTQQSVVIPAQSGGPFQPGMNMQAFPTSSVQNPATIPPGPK
Cyclin-dependent kinase 13 (Homo sapiens), sequence (Q14004 whole entry, looked up, the tested form may be a part): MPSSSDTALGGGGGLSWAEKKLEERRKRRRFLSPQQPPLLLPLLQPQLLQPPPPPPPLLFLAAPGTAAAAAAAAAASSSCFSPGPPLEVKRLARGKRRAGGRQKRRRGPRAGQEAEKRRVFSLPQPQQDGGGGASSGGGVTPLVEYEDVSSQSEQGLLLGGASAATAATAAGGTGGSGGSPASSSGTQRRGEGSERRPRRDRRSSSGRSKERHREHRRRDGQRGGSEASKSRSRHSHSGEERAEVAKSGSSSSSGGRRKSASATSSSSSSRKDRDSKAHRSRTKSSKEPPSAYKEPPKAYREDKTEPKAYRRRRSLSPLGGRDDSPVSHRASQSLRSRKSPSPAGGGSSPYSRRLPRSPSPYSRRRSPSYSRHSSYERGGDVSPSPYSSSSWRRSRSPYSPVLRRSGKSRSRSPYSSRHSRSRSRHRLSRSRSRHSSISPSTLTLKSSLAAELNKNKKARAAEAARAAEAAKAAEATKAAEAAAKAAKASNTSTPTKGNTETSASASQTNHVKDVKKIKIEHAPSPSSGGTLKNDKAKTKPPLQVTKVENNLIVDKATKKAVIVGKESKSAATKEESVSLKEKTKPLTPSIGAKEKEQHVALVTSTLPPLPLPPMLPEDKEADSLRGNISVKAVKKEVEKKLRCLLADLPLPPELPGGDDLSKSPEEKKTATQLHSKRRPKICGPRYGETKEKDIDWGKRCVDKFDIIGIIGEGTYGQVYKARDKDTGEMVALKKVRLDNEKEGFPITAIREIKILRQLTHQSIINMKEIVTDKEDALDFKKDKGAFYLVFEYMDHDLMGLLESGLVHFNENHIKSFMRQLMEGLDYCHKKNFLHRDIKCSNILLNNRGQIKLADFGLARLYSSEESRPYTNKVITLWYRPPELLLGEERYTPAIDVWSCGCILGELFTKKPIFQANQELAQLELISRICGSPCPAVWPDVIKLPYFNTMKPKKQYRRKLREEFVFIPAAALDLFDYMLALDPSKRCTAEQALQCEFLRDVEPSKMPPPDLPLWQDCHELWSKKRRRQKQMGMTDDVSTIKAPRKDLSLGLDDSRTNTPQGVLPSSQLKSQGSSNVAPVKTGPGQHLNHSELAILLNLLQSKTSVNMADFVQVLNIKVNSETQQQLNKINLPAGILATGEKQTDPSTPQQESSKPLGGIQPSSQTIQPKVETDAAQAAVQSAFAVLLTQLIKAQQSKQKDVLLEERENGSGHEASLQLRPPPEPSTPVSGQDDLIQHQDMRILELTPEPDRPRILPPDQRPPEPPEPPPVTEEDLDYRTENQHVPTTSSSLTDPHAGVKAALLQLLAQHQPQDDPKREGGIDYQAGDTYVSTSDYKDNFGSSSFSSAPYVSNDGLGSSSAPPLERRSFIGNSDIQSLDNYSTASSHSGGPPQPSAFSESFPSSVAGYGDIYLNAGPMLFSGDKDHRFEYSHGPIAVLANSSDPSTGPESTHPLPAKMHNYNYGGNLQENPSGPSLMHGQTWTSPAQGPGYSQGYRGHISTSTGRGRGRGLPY
Serine/threonine-protein kinase Nek6 (Homo sapiens), sequence (Q9HC98 whole entry): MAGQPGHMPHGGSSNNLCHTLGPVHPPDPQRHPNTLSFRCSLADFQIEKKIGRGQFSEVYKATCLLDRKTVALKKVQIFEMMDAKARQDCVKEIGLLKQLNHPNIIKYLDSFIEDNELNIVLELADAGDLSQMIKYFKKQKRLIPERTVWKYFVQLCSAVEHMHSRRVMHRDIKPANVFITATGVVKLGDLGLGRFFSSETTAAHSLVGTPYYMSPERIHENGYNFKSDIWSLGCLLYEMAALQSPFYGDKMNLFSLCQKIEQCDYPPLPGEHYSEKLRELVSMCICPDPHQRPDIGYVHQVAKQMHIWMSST

Structure (SMILES) | Activity [1] [%] | Activity [2] [%] | Activity [3] [%] | Activity [4] [%] | Activity [5] [%] | Activity [6] [%] | Activity [7] [%]
COc1cc2nc(C)nc(N[C@H](C)c3cccc(-c4cn[nH]c4)c3)c2cc1OC | 93 | 63 | 77 | 70 | 93 | 87 | 100
COc1cc2ncnc(N[C@H](C)c3cccc4ccccc34)c2cc1OC | 99 | 80 | 98 | 100 | 97 | 97 | 100
